Test results as given in US5891882A, “Benzopyranopyrrole and benzopyranopyridine α-1 adenergic compounds” (priority 1997, dated 1999).
Counter-ions that a name gives are not always drawn.

Tests used:
[1] = molecular target: T1, α-1 Adrenoceptors (Rat Aorta) (Rattus norvegicus, UniProt P23944); assay: Functional antagonism at α-1 adrenoceptors, rat aorta; format: cell-based; conditions: read-out: In Vitro Characterization (pA2) Rat Aorta (converted)
T1 construct: Rat Aorta; from tissue; host or cells: rat aorta
T1 sequence (P23944 1-561): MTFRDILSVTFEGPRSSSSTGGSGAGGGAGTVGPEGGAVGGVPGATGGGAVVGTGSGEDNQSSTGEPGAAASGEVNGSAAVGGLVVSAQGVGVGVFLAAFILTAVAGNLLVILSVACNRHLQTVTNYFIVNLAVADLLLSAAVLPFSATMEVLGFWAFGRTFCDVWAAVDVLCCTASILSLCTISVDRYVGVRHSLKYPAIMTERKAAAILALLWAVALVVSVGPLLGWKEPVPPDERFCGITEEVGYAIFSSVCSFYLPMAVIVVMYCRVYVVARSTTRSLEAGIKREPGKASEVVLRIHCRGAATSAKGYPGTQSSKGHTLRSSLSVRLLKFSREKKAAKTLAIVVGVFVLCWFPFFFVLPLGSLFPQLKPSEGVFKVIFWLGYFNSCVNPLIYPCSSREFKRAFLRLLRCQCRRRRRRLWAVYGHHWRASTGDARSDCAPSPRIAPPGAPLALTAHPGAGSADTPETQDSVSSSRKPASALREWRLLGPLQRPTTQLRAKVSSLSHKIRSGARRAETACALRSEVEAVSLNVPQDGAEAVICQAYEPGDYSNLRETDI
Summary of the method: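 Phenylephrine dose-response curves for contraction were repeated against increasing test-agent concentrations. pA2 was derived by Schild plot [[…] vs log molarity of test agent].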

[2] = molecular target: T2, α-1A adrenoreceptor (rat vas deferens) (Rattus norvegicus, UniProt P43140); assay: Functional antagonism: inhibition of phenylephrine-induced contraction of rat vas deferens; format: cell-based; conditions: rat vas deferens, phenylephrine-induced contraction, Schild plot
T2 construct: from tissue; host or cells: rat vas deferens
T2 sequence (P43140 1-466): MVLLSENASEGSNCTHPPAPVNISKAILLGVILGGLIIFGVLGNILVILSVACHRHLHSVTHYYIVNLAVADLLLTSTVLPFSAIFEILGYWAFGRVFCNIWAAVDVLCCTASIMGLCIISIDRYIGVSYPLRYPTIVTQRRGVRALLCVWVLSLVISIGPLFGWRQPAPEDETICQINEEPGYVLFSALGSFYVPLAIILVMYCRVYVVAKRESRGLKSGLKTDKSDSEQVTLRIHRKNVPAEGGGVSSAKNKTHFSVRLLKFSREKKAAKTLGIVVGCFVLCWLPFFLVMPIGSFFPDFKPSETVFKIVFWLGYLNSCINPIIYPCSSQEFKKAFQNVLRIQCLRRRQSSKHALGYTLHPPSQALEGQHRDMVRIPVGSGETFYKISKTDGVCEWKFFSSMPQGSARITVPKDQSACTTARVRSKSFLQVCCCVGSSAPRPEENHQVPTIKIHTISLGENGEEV
Description: (§1) Functional assays indicative of pharmacologically defined α-1 adrenoreceptors were used to further characterize compounds. Inhibition of phenylephrine (PE)-induced contraction of canine prostate smooth muscle can be correlated with α-1A adrenoreceptor activation. […] For each of these models, agonist dose response curves were repeated against increasing concentrations of test agent to derive a Schild plot [log ([…]) against log (molarity of test agent)] to determine the pA2.

[3] = molecular target: T3, α-1B adrenoreceptor (rat spleen) (Rattus norvegicus, UniProt P15823); assay: Functional antagonism: inhibition of phenylephrine-induced contraction of rat spleen; format: cell-based; conditions: rat spleen, phenylephrine-induced contraction, Schild plot
T3 construct: from tissue; host or cells: rat spleen
T3 sequence (P15823 1-515): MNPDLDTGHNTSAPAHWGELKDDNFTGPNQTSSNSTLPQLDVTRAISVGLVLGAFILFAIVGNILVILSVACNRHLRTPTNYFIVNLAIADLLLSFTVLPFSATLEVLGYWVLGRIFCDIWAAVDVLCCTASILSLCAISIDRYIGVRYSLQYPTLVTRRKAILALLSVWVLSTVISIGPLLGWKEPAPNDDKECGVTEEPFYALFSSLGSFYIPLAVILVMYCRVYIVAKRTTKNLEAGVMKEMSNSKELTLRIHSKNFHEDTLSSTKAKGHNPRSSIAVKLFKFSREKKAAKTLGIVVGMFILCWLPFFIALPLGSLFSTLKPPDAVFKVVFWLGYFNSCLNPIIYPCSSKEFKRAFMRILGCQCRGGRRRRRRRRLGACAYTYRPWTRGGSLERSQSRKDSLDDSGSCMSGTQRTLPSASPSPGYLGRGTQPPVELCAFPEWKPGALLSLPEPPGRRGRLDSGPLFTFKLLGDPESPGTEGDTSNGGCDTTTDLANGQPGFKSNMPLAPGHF
Description: as §1

α-1 adrenoreceptor = conditions: cited from earlier work
[4] = antihypertensive treatment; cited from earlier work

Compound | Kb [1] [pM] | In Vitro Characterization (pA2) Rat Vas [2] | In Vitro Characterization (pA2) Rat Spleen [3] | dose limiting side effects (α-1 adrenoreceptor; BPH treatment) | urinary flow rates and subjective symptom scores (α-1 adrenoreceptor; longer term studies, BPH) | urinary incontinence in women [4]
COc1cccc2c1[C@@H]1CN(CCCCn3c(=O)[nH]c4c(sc5ccncc54)c3=O)C[C@H]1CO2 [Example 41, 3-[4-((3aR,9bR)-trans-9-Methoxy-1,2,3,3a,4,9b-hexahydro-[1]-benzopyrano[3,4-c]pyrrol-2-yl)butyl]-pyrido[3',4':4,5]thieno[3,2-d]pyrimidine-2,4(1H,3H)-dione hydrochloride] | 17 | 9.45 |  |  |  | 
COc1cccc2c1[C@@H]1CN(CCCCn3c(=O)[nH]c4c(sc5cnccc54)c3=O)C[C@H]1CO2 [Example 42, hydrochloride] | 38.9 | 9.59 |  |  |  | 
COc1cccc2c1[C@@H]1CN(CCCCn3c(=O)[nH]c4c(sc5nc(C)ccc54)c3=O)C[C@H]1CO2 [Example 45, 3-[4-((3aS,9bR)-trans-9-Methoxy-1,2,3,3a,4,9b-hexahydro-[1]-benzopyrano[3,4-c]pyrrol-2-yl)butyl]-7-methyl-pyrido[3',2':4,5]thieno[3,2-d]pyrimidine-2,4(1H,3H)-dione hydrochloride] | 209 | 9.59 |  |  |  | 
COc1cccc2c1[C@@H]1CN(CCCCn3c(=O)[nH]c4c(sc5c(Cl)nccc54)c3=O)C[C@@H]1CO2 [Example 53, 3-[4-((3aR,9bR)-cis-9-Methoxy-1,2,3,3a,4,9b-hexahydro-[1]-benzopyrano[3,4-c]pyrrol-2-yl)butyl]-6-chloro-pyrido[4',3':4,5]thieno[3,2-d]pyrimidine-2,4(1H,3H)-dione] | 1070 | 9.31 | 7.2 |  |  | 
COc1cc2nc(N3CCN(C(=O)c4ccco4)CC3)nc(N)c2cc1OC [Prazosin, prazosin] |  |  |  | hypotension, dizziness, and muscle fatigue | significant improvements in urinary flow rates and subjective symptom scores | urinary incontinence developed in women
